Reference: US8378117B2 (priority 2005, dated 2013)

Columns and labels:
Type in all cases: in vivo
Male CD-1 mice [1] = test: Postoperative inflammatory ileus, microscopic myeloperoxidase histological examination; conditions: Surgical Manipulation, 24 hr post-laparotomy, mean ± SE
Method: (§1) Male CD-1 mice were anesthetized by inhaled isoflurane and prepared for surgery. The abdomen was shaved of hair and treated with antiseptic solution. The animal was then covered with a surgical drape, leaving the abdomen exposed. A mid-line laparotomy was performed, and the entire small intestine was exteriorized onto the sterile drape. Using two moistened, sterile, cotton-tipped applicators, the small intestine was then gently compressed along its length from the ligament of Treitz to the ileo-cecal junction. The small intestine was then returned to the abdominal cavity and the incision closed by two layers of sutures.
(§2) Age-matched mice were randomly assigned to groups (6 animals per group) and injected intraperitoneally (i.p.) with “vehicle” (a mixture of 5% ethanol/5% Tween80/90% of 5% dextran in water w/v) containing various doses of a test compound 1 hr prior to laparotomy. The second group was injected intraperitoneally with vehicle. The third group was administered intragastrically (1 mg/kg) a mixture (1 mg/mL) of dexamethasone in 20% hydroxypropyl methyl dextran in water, once per day for two days prior to surgery and 5 hrs post-laparotomy. The fourth group received no intervention and served as naïve controls.
Microscopic histological examination was performed on harvested tissues 24 hr post-laparotomy. […] Hanker-Yates reagent (Polysciences Inc.) forms an insoluble, blue-black polymer in the presence of hydrogen peroxide and peroxidase enzyme activity. Segments of mid small bowel were collected from the centrifuge tubes described in the previous section. Whole mounts of the muscle layer were prepared by opening the tube of bowel along the mesenteric border and pinning the tissue flat in a Sylgard™ lined Petri dish with the mucosal surface facing upward. The tissue was stretched to 1.5 times its length and 2.5 times its width, and the mucosa removed by fine dissection. The remaining muscularis whole mounts were then fixed with 100% ethanol for 45 min, washed 3 times with PBS, and incubated for 20 min in PBS containing 0.1% hydrogen peroxide and 1 mg/ml Hanker-Yates reagent (Polysciences, Inc). The reagent is polymerized in the presence of hydrogen peroxide and peroxidase activity to form a blue-black deposit. Following a second wash with PBS, the whole mounts were mounted on glass slides, cover-slipped, and viewed on an optical microscope. Myeloperoxidase containing leukocytes were counted in 6 to 8 adjacent 200× optical fields, and the mean cell counts were calculated and recorded.
The presence of myeloperoxidase (MPO) positive immune cells in the intestinal muscularis is rare in normal animals.

Male CD-1 mice [2] = test: Postoperative inflammatory ileus, upper gastrointestinal transit (FITC-dextran, Geometric Center); conditions: Surgical Manipulation, 24 hr post-laparotomy, mean ± SE, scale 1 to 15
Method: as §1, §2
Upper gastrointestinal transit was measured 24 hr post-laparotomy. Mice were fed a test meal consisting of 150 μL of FITC-dextran solution (5 mg/mL of 70,000 molecular weight dextran conjugated to fluorescein-isothiocyanate in 0.5% hydroxypropyl methylcellulose/deionized water) administered intragastrically by an 18 gauge feeding tube. Following oral administration of the FITC-dextran test meal, animals were returned to their home cages. Following a 45 min test period, mice were euthanized by isoflurane overdose and exsanguination. The entire gastrointestinal tract from the lower esophageal sphincter to the terminal colon was removed. The bowel segments were opened along the mesenteric border. The tissue and luminal contents of the stomach, 10 equal segments of small intestine, the cecum, and 3 equal segments of colon were placed in individual Eppendorf tubes containing 1 ml of PBS. The tissue was vigorously mixed on a tabletop vortex, and solid materials were pelletized by centrifugation. Aliquots of the cleared supernatant were read in duplicate on a 96-well fluorescence plate reader to quantify the magnitude of the fluorescent signal in each segment of bowel.
These values were used to calculate the Geometric Center (REF), which is defined as the weighted average distribution of the fluorescent signal along the gastrointestinal tract: GC=Σ(% of total fluorescent signal per segment×segment number)/100,
Higher GC values represent faster rates of transit on scale of 1 to 15.
Surgical manipulation of the small bowel leads to a significant delay in gastrointestinal transit, going from a Geometric Center of 8.4 in normal mice to 3.3 in vehicle treated animals.

Male CD-1 mice [3] = test: Oil of mustard induced colitis model; conditions: Therapeutic Regimen, 5 mg/kg oral; 5 mg/kg
Excerpt: In the distal colon, the oil of mustard colitis model is characterized by a discontinuous pattern of mucosal epithelial damage, submucosal edema, infiltration of inflammatory cells (including macrophages, neutrophils and lymphocytes) into the mucosa and submucosa, increased wet weight of the colon, shrinkage of the colon length, diarrhea and apparent inflammation (see, Kimball E. S., Palmer J. M., D'Andrea M. R., Homby P. J. and Wade P. R., Acute colitis induction by oil of mustard results in later development of an IBS-like accelerated upper GI transit in mice, Am. J Physiol. Gastrointest. Liver Physiol., 2005, 288: G 1266-1273).
Male CD-1 mice (Charles River Laboratories, Kingston, N.C.) (9-11 weeks old) and fresh oil of mustard (OM) (allyl isothiocyanate, 98% purity, Sigma-Aldrich St. Louis, Mo.) were used.
The mice (9 per treatment group) were briefly anesthetized with ketamine/xylasine (Sigma, St. Louis, Mo.) and a solution of 0.5% OM in 30% ethanol (50 μL) was administered intracolonically (to a depth of 4 cm) via syringe (equipped with a ball-tipped 22 G needle).
A test compound was orally administered one day prior to colitis induction for assessing a prophylactic regimen or one day post-induction for assessing a therapeutic regimen. A test compound was orally administered daily thereafter. Two days after OM administration, the last test compound dose was administered.
Three days after OM administration, the animals were sacrificed. The colons were resected, examined for signs of inflammation, weighed after removing fecal contents and the length from the aboral end of the cecum to the anus was measured. The fecal contents were examined for signs of diarrhea. The distal colon between the 1st and the 4th centimeter was removed and placed in 10% neutral buffered formalin for histological analysis.
The macroscopic observations of colon inflammation (a measure of colon damage), colon weight and length and stool consistency and appearance were assigned a score and used to evaluate colitis severity.
The four observation scores for each colon were combined, whereby a combined score of 0 represents a normal colon and a combined score of 15 represents a maximally affected colon. Statistical analyses were performed in Graphpad Prism 4.0 using ANOVA.
Histological analyses of tissues consisted of staining paraffin-embedded tissue sections with hematoxylin-eosin dye. The tissues were examined using light microscopy by an investigator who was blinded to the sample groups.
The microscopic observations of epithelial damage, cellular infiltration and damage or alteration of smooth muscle architecture (a measure of muscle damage) were assigned a score and used to evaluate colitis severity.
The scores for each colon were combined, whereby a combined score of 0 represents a normal colon and a combined score of 9 represents a maximally affected colon. Statistical analyses were performed in Graphpad Prism 4.0 using ANOVA.
The Macroscopic Score and Microscopic Score results for each treatment group in the prophylactic and therapeutic regimens were each combined into a mean score and expressed as % inhibition of colitis (% Inh). Test (#) represents the number of experiments at each dose level.

Row | Structure (SMILES) | MPO-Positive Cells (Per 200× Optical Field) (Male CD-1 mice [1]; dose 1 mg/kg) | MPO-Positive Cells (Per 200× Optical Field) (Male CD-1 mice [1]; dose 3 mg/kg) | MPO-Positive Cells (Per 200× Optical Field) (Male CD-1 mice [1]; dose 10 mg/kg) | MPO-Positive Cells (Per 200× Optical Field) (Male CD-1 mice [1]; dose 30 mg/kg) | Geometric Center (upper gastrointestinal transit) (Male CD-1 mice [2]; dose 1 mg/kg) | Geometric Center (upper gastrointestinal transit) (Male CD-1 mice [2]; dose 3 mg/kg) | Geometric Center (upper gastrointestinal transit) (Male CD-1 mice [2]; dose 10 mg/kg) | Geometric Center (upper gastrointestinal transit) (Male CD-1 mice [2]; dose 30 mg/kg) | % Inh (Macro), % inhibition of colitis, macroscopic score (Male CD-1 mice [3])
1 | C[C@H](NS(=O)(=O)/C=C/c1n[nH]c2c1CCCC/C2=C\c1ccc(Cl)cc1)c1ccccc1 [Cpd 237, (2E,8E)-2-[8-(4-chloro-benzylidene)-1,4,5,6,7,8-hexahydro-cycloheptapyrazol-3-yl]-ethenesulfonic acid [(1S)-1-phenyl-ethyl]-amide] | 57.8 ± 17.0 | 41.3 ± 9.4 | 77.7 ± 25.7 | 60.3 ± 20.9 | 3.8 ± 0.40 | 3.6 ± 0.53 | 4.7 ± 0.40 | 5.6 ± 0.76 | 
2 | O=C(N[C@H](CO)c1ccccc1)c1n[nH]c2c1CCCCC2Cc1cccc(Cl)c1 (single isomer, unassigned) [Cpd 230, (8R*)-8-(3-chloro-benzyl)-1,4,5,6,7,8-hexahydro-cycloheptapyrazole-3-carboxylic acid [(1S)-2-hydroxy-1-phenyl-ethyl]-amide] |  |  |  |  |  |  |  |  | 25.9 ± 24.7%
3 | C[C@H](NS(=O)(=O)/C=C/c1n[nH]c2c1CCCCC2Cc1cccc(F)c1)c1ccccc1 (single isomer, unassigned) [Cpd 232, (2E)-2-[(8R*)-8-(3-fluoro-benzyl)-1,4,5,6,7,8-hexahydro-cycloheptapyrazol-3-yl]-ethenesulfonic acid [(1S)-1-phenyl-ethyl]-amide] |  |  | 127.6 ± 25.7 | 60.2 ± 20.8 |  |  | 4.0 ± 0.59 | 5.6 ± 0.16 | 
4 | O=C(N[C@H](CO)c1ccccc1)c1n[nH]c2c1CCCCC2Cc1cccc(Cl)c1 (single isomer, unassigned) [Cpd 231, (8S*)-8-(3-chloro-benzyl)-1,4,5,6,7,8-hexahydro-cycloheptapyrazole-3-carboxylic acid [(1S)-2-hydroxy-1-phenyl-ethyl]-amide] |  |  |  |  |  |  |  |  | −19 ± 20.7%
